For 7 compounds, IC50 results are on record in ChEMBL document CHEMBL4376808, “Triphenylphosphonium Analogues of Betulin and Betulinic Acid with Biological Activity: A Comprehensive Review” (J Nat Prod, 2019).

Each structure is given as a SMILES string.

What all share (assay type): functional, cell-based
One assay deals with HCT-116. The assay is described as follows: Cytotoxic activity in human HCT116 cells assessed as reduction in cell viability.
A further assay has as its system A549. The assay is described as follows: Cytotoxic activity in human A549 cells assessed as reduction in cell viability.
The next assay concerns MCF7. The assay is described as follows: Cytotoxic activity in human MCF7 cells assessed as reduction in cell viability.

On to `C=C(C)[C@@H]1CC[C@]2(C(=O)O)CC[C@]3(C)[C@H](CC[C@@H]4[C@@]5(C)CC[C@H](OC(C)=O)C(C)(C)[C@@H]5CC[C@]43C)[C@@H]12`, for which the IC50 in the assay with HCT-116 was found to be 9.6 µM.
In the case of `C=C(C)[C@@H]1CC[C@]2(C(=O)OCc3cn(-c4cccc(C(=O)O)c4)nn3)CC[C@]3(C)[C@H](CC[C@@H]4[C@@]5(C)CCC(=O)C(C)(C)[C@@H]5CC[C@]43C)[C@@H]12`, in the assay with HCT-116, the IC50 worked out at 4 µM.
For the compound `C=C(C)[C@@H]1CC[C@]2(C(=O)OCc3cn(-c4cccc(O)c4)nn3)CC[C@]3(C)[C@H](CC[C@@H]4[C@@]5(C)CCC(=O)C(C)(C)[C@@H]5CC[C@]43C)[C@@H]12`, the half-maximal inhibitory concentration (IC50) in the assay on A549 is 3.7 µM.
Same read-out and setting: the figure for `C=C(C)[C@@H]1CC[C@]2(C(=O)OCc3cn(-c4ccc5c(c4)OCO5)nn3)CC[C@]3(C)[C@H](CC[C@@H]4[C@@]5(C)CCC(=O)C(C)(C)[C@@H]5CC[C@]43C)[C@@H]12` is 5 µM.
As for `C=C(C)[C@@H]1CC[C@]2(C(=O)O)CC[C@]3(C)[C@H](CC[C@@H]4[C@@]5(C)CC/C(=N/Nc6ccc([N+](=O)[O-])cc6[N+](=O)[O-])C(C)(C)[C@@H]5CC[C@]43C)[C@@H]12`, the concentration for half-maximal inhibition (IC50) with MCF7 is 8.2 µM.
As for `C=C(C)[C@@H]1CC[C@]2(C(=O)OCc3cn(-c4ccc(O)c(C)c4)nn3)CC[C@]3(C)[C@H](CC[C@@H]4[C@@]5(C)CCC(=O)C(C)(C)[C@@H]5CC[C@]43C)[C@@H]12`, in the assay on HCT-116, the half-maximal inhibitory concentration (IC50) is 3.5 µM.
In the case of `C=C(C)[C@@H]1CC[C@]2(C(=O)O)CC[C@]3(C)[C@H](CC[C@@H]4[C@@]5(C)CC[C@H](C#CCN6CCCC6)C(C)(C)[C@@H]5CC[C@]43C)[C@@H]12`, the concentration for half-maximal inhibition (IC50) with MCF7 is 5.5 µM.
